Columns and labels:
Type in all cases: biochemical
HbO2 = target: T1, HbO2 (Homo sapiens, UniProt P68871+P69905); assay: Screening of suppressing effect of compounds against autoxidation of HbO2; conditions: for metHb conversion (%): HbO2 10 g/dL, antioxidant 1 g/dL, 37° C., 24 hours
T1 construct: The Hb released by hemolysis was filtered and collected, with the red blood cell membrane components (stroma) separated and removed; from tissue; host or cells: human red blood cells (expired donated blood); heat-treated, nanofiltered, purified and concentrated HbCO, photoconverted to HbO2
T1 sequence (P69905 2-142 limits assumed): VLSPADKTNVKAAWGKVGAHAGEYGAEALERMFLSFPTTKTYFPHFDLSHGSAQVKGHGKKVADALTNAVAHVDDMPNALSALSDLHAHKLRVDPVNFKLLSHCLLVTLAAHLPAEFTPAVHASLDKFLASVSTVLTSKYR
T1 sequence (P68871 2-147 limits assumed): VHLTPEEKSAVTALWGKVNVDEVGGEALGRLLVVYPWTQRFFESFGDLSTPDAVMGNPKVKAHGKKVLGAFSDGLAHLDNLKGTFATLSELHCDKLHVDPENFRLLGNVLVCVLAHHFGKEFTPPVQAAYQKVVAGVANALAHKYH
Protocol: NADH was purchased from Oriental Yeast Co. Ltd., and all the rest were purchased from Sigma-Aldrich (St. Louis, Mo., USA). HbCO solution was transferred to an eggplant flask and irradiated with visible light (halogen lamp; LPL Videeoligtvl-302, LPLCO. Ltd., Tokyo, Japan) under oxygen gas flow to convert to HbO2. […] The conversion ratios to metHb were determined from the visible absorption spectrum. The measurement of spectrum between 300 nm to 500 nm was conducted using a spectrophotometer (V-660, Japan Spectroscopic Company (JASCO)) mounted with a device to control the light scattering to the minimum (an integrating sphere). The atmosphere inside of a Thunberg cuvette was replaced with nitrogen gas and the conversion ratios to metHb were determined from the ratios of absorbance at 405 nm (λmax of metHb) and 430 nm (λmax of deoxyHb).

[1] = SOD (pseudo SOD) activity, pyrogallol method; conditions: for SOD / SOD pseudo activity (in words): Examples 1 and 7; for pseudo SOD: Table 1, pyrogallol, absorbance at 420 nm, Hb form and antioxidant conc. per entry
Protocol: (§1) The activity of NADH-cytochrome b5 reductase in the above-mentioned purified and concentrated HbCO solution was determined as NADH-ferricyanide reductase activity according to Beutler, E. above. Diluted Hb samples comprising the enzyme to be measured is mixed with a buffer comprising NADH. The mixed solutions were left standing for 10 minutes at 30° C., and then potassium ferricyanide (K3Fe (CN)6), the enzyme substrate, was added to start the enzyme reaction. The decrease of difference of absorbance at 340 nm, a characteristic absorption of NADH, per minute was measured to determine activity unit E (IU/gHb). […] It was reasoned that the heat-labile NADH-cytochrome b5 reductase was eliminated as denatured and insoluble, or denatured and inactivated, due to the introduction of heat treatment during the purifying step. In addition, activities of NADPH metHb reductase and NADPH diaphorase, which correspond to NADPH-flavin reductase are also determined by the above-mentioned methods according to Beutler, E. Diluted blood samples comprising the enzyme to be measured is mixed with a buffer comprising NADPH. The mixed solutions were left standing for 10 minutes at 37° C., and then methylene bleu (MeBl), the enzyme substrate, was added to start the enzyme reaction. The decrease of difference of absorbance at 340 nm, a characteristic absorption of NADPH, per minute was measured to determine activity unit E (IU/gHb). […] Catalase activity of the purified HbCO solution was determined from the change of the absorbance at 230 nm, the absorption wavelength of H2O2, according to Beutler, E. (RED CELL METABOLISM: A MANUAL OF BIOCHEMICAL METHOD, Grune &Stratton, Inc. pp. 105-106 (1987)). […] Pyrogallol was used for measurement of SOD activity (Marklund, S. and Marklund, G., Eur. J. Biochem. 47, 469-474 (1974); Roth, E. F. Jr. and Gilbert, H. S., Anal. Biochem. 137, 50-53(1984)). Pyrogallol is oxidized with oxygen to generate superoxide, and further reacted to generate a yellow dye with absorbance at 420 nm. SOD inhibits this reaction. SOD enzyme activity was determined based on this inhibitory activity. Analyzed specimens were solutions of purified HbO2, HbCO, metHb and solutions thereof further comprising NADH or L-tyrosine In addition, enzyme activity of crude SFHb solution was also determined as a control. […] When NADH and HbO2 were coexisted, however, high CAT and SOD pseudo activities (Table 1). […] The pseudo activity was detected when NADH alone was present, however, the activity was about a tenth ( 1/10) compared with when HbO2 was coexisted. […] There were results showing that this pseudo activity increased as more NADH was added.

[2] = Catalase (pseudo CAT) activity from change of absorbance at 230 nm of H2O2; conditions: for catalase / CAT pseudo activity (in words): Examples 1 and 7; for pseudo CAT: Table 1, NADH without Hb, calculated relative to Hb conc. of 1.5 mM (10 g/dL)
Protocol: as §1

Row | Compound | metHb conversion (%) (HbO2) | further results
1 | OCC(O)CO [glycerol] | 38 | 
2 | 14: methemoglobin 1.5 mM prepared from the purified Hb solution, no antioxidant [Entry 14] |  | SOD / SOD pseudo activity (in words) [1]: no enzyme activity was found; catalase / CAT pseudo activity (in words) [2]: no enzyme activity was found
3 | NC(=O)c1cccnc1 [nicotinamide] | 34 | 
4 | N=C(N)NCCC[C@H](N)C(=O)O [L-arginine] | 38 | 
5 | CC1=C(/C=C/C(C)=C/C=C/C(C)=C/C=C/C=C(C)/C=C/C=C(C)/C=C/C2=C(C)C(=O)[C@@H](O)CC2(C)C)C(C)(C)C[C@H](O)C1=O [astaxanthin] | 39 | 
6 | N[C@@H](Cc1c[nH]c2ccccc12)C(=O)O [L-tryptophan] | 38 | 
7 | NC(=O)C1=CN([C@@H]2O[C@H](COP(=O)(O)OP(=O)(O)OC[C@H]3O[C@@H](n4cnc5c(N)ncnc54)[C@H](O)[C@@H]3O)[C@@H](O)[C@H]2O)C=CC1 [Entry 12, NADH] |  | pseudo SOD [1]: 0.6 × 10^2 U/g Hb; pseudo CAT [2]: 19.2 × 10^4 *) IU/g Hb
8 | NC(=O)C1=CN([C@@H]2O[C@H](COP(=O)(O)OP(=O)(O)OC[C@H]3O[C@@H](n4cnc5c(N)ncnc54)[C@H](O)[C@@H]3O)[C@@H](O)[C@H]2O)C=CC1 [Entry 10, NADH] |  | pseudo SOD [1]: 1.1 × 10^2 U/g Hb; pseudo CAT [2]: 3.6 × 10^4 *) IU/g Hb
9 | N[C@@H](CS)C(=O)O [L-cysteine] | 34 | 
10 | CSCC[C@H](N)C(=O)O [L-methionine] | 41 | 
11 | 15: carbonyl Hb 1.5 mM prepared from the purified Hb solution, no antioxidant [Entry 15] |  | SOD / SOD pseudo activity (in words) [1]: no enzyme activity was found; catalase / CAT pseudo activity (in words) [2]: no enzyme activity was found
12 | O=c1c(O)c(-c2ccc(O)c(O)c2)oc2cc(O)cc(O)c12 [quercetin] | 42 | 
13 | NC(=O)C1=CN([C@@H]2O[C@H](COP(=O)(O)OP(=O)(O)OC[C@H]3O[C@@H](n4cnc5c(N)ncnc54)[C@H](OP(=O)(O)O)[C@@H]3O)[C@@H](O)[C@H]2O)C=CC1 [NADPH, nicotinamide adenine dinucleotide phosphate (NADPH)] | 37 | effect to suppress metHb conversion compared with NADH (HbO2; coexisting with HbO2 at 37° C. for 26 hours): inferior to that of NADH
14 | Nc1ncnc2c1ncn2[C@@H]1O[C@H](COP(=O)(O)OP(=O)(O)OP(=O)(O)O)[C@@H](O)[C@H]1O [ATP] | 44 | 
15 | O=C([O-])[C@H](O)[C@@H](O)[C@H](O)[C@H](O)CO.[Na+] [sodium gluconate] | 49 | 
16 | N[C@@H](Cc1ccc(O)cc1)C(=O)O [L-tyrosine] | 38 | 
17 | O=C1O[C@H]([C@@H](O)CO)C([O-])=C1O.[Na+] [sodium L-Ascorbate] | 37 | 
18 | N[C@@H](Cc1c[nH]cn1)C(=O)O [L-histidine] | 32 | 
19 | NC(=O)CC[C@H](N)C(=O)O [L-glutamine] | 43 | 
20 | 13: oxyhemoglobin 1.5 mM prepared from the purified Hb solution, no antioxidant [Entry 13] |  | SOD / SOD pseudo activity (in words) [1]: no enzyme activity was found; catalase / CAT pseudo activity (in words) [2]: no enzyme activity was found
21 | NC(=O)C[C@H](N)C(=O)O [L-asparagine] | 40 | 
22 | NCCCC[C@H](N)C(=O)O [L-lysine] | 34 | 
23 | NC(=O)C1=CN([C@@H]2O[C@H](COP(=O)(O)OP(=O)(O)OC[C@H]3O[C@@H](n4cnc5c(N)ncnc54)[C@H](O)[C@@H]3O)[C@@H](O)[C@H]2O)C=CC1 [Entry 11, NADH] |  | pseudo SOD [1]: 1.3 × 10^2 U/g Hb; pseudo CAT [2]: 4.1 × 10^4 *) IU/g Hb
24 | O=C[C@H](O)[C@@H](O)[C@H](O)[C@H](O)CO [D-glucose] | 36 | 

Source: patent US20190076507A1, “Artificial Red Blood Cell Having Ability to Inhibit Conversion of Hemoglobin into Methemoglobin” (Public University Corporation Nara Medical University, priority 2016, published 2019)
